A short description of series [1]: Cytotoxicity against human MT4 cells assessed as reduction in cell viability incubated for 5 days by MTT assay. Format: cell-based. The settings on record: time 5 day. For orientation: Tetrazolium dyes change colour on reduction, which living cells bring about.
The subject of series [2] is Human immunodeficiency virus 1. Description: Antiviral activity against HIV-3B infected in human MT-4 cells assessed as reduction in virus-induced cytopathic effect incubated for 5 days by MTT assay. The settings on record: Human immunodeficiency virus 1, 3B, MT4, 120 h. Format: functional, organism-based. (Damage to the host cells serves as the signal in cytopathic effect assays.)

Series [3] concerns Human immunodeficiency virus 2. Description: Antiviral activity against HIV2 ROD infected in human MT-4 cells assessed as reduction in virus-induced cytopathic effect incubated for 5 days by MTT assay. Format: functional, organism-based. The settings on record: MT4, time 5.0 day.
Series [4] has as its target Human immunodeficiency virus type 1 reverse transcriptase (Human immunodeficiency virus 1, UniProt Q72547). Description: Inhibition of recombinant HIV-1 BH10 reverse transcriptase using D38/[32P]25PGA as template-primer incubated for 5 mins in presence of DTT followed by dTTP addition and measured after 15 to 30 sec by nucleotide incorporation assay. The arrangement: species or system Human immunodeficiency virus type 1 BH10.

A short description of series [5]: Selectivity index, ratio of EC50 for HIV-3B infected in human MT-4 cells to EC50 for HIV-3B harboring reverse transcriptase Y181C mutant infected in human MT-4 cells. It is filed as functional, Human immunodeficiency virus 1.
Series [6] has as its system Human immunodeficiency virus 1. Description: Antiviral activity against HIV-3B harboring reverse transcriptase Y181C mutant infected in human MT-4 cells assessed as reduction in virus-induced cytopathic effect incubated for 5 days by MTT assay. It is filed as functional, organism-based. The settings on record: Human immunodeficiency virus 1, 3B, MT4, 120 h.
The nature of series [7]: Stability of compound in PBS buffer at pH 2 at 2.5 mM incubated for 24 hrs by reverse phase HPLC analysis. Format: physicochemical. The settings on record: pH 2, 24 h, 2500 µM.
Series [8] in a line: Stability of compound in PBS buffer at pH 7.4 at 2.5 mM incubated for 24 hrs by reverse phase HPLC analysis. The settings on record: pH 7.4, 24 h, 2500 µM. It is filed as physicochemical.

pEC50, pIC50: −log10 of the molar value. Activity calls are given as the source filed them. The rule behind the calls is not given here.

On to `C=CC(=O)N[C@@H]1CCN(S(=O)(=O)c2c(C(N)=O)[nH]c3ccc(Br)cc23)C1`, for which, in series [1], the CC50 (in general, the concentration that lowers cell viability or growth by half) at 120 h came to 178 µM. Moreover, the pEC50 (as a rule, the negative decadic logarithm of the EC50, by convention in mol/L) in series [2] is less than 3.75. In series [3], the result was inactive.

As for `O=C1Nc2ccc(Cl)cc2[C@@](C#CC2CC2)(C(F)(F)F)O1` [EFAVIRENZ], the CC50 at 120 h in series [1] is greater than 6.3 µM. Also, the result in series [3] was inactive.

Turning to `C=CC(=O)NC1CCN(S(=O)(=O)c2c(C(N)=O)[nH]c3ccc(Br)cc23)CC1`, in series [1], the CC50 at 120 h is greater than 274 µM. The pEC50 in series [2] was 3.90. Besides, the result in series [3] was inactive.

With `Cc1cc(C#N)cc(C)c1Oc1nc(Nc2ccc(C#N)cc2)nc(N)c1Br` [ETRAVIRINE], the pEC50 in series [2] was 8.00.

As to `C=CC(=O)N1CCC[C@@H](NS(=O)(=O)c2c(C(N)=O)[nH]c3ccc(Br)cc23)C1`, the CC50 at 120 h in series [1] is 43.6 µM. Moreover, the pEC50 in series [2] is less than 4.36. For the same molecule, the outcome in series [3] was inactive.

Consider `NC(=O)c1[nH]c2ccc(Br)cc2c1S(=O)(=O)N1CCCC1`, for which, in series [1], the CC50 at 120 h came to 35.3 µM. In addition, the pEC50 in series [2] is 5.44. In addition, the result in series [3] was inactive. In series [4], the pIC50 (commonly the IC50 on a negative log10 scale, so that one unit is a factor of ten) was 6.32.

Consider `Cc1cc(/C=C/C#N)cc(C)c1Nc1ccnc(Nc2ccc(C#N)cc2)n1` [RILPIVIRINE], for which the pEC50 in series [2] is 8.00.

`C=CS(=O)(=O)N1CCC[C@@H](NS(=O)(=O)c2c(C(N)=O)[nH]c3ccc(Br)cc23)C1`: the CC50 at 120 h in series [1] is 29 µM. Further, the pEC50 in series [2] is less than 4.54; in series [6] it was 4.39. Further, the result in series [3] was inactive. The pIC50 in series [4] was less than 4.00. For the same molecule, the “Ratio EC50” value in series [5] was found to be 7.7.

On to `C=CS(=O)(=O)NC1CCN(S(=O)(=O)c2c(C(N)=O)[nH]c3ccc(Br)cc23)CC1`, for which the 50% cytotoxic concentration (CC50) at 120 h in series [1] was 6.5 µM. In series [2], the pEC50 was less than 5.19. The outcome in series [3] was inactive.

Consider `C=CC(=O)N1CC[C@@H](NS(=O)(=O)c2c(C(N)=O)[nH]c3ccc(Br)cc23)C1`, for which, in series [1], the CC50 at 120 h came to 51.8 µM. Further, the pEC50 in series [2] was less than 4.29. Also, the result in series [3] was inactive.

`C=CS(=O)(=O)N1CC[C@H](NS(=O)(=O)c2c(C(N)=O)[nH]c3ccc(Br)cc23)C1`: in series [1], the CC50 at 120 h turned out to be 16 µM. For the same molecule, the Stabilty entry in series [7] and in series [8] was “Stable” throughout. For the same molecule, the pEC50 was 5.01 in series [2] and 4.66 in series [6]. Moreover, in series [3], the result was inactive. The pIC50 in series [4] is less than 4.00. Also, the “Ratio EC50” value in series [5] was determined as 9.3.

For `C=CC(=O)N1CC[C@H](NS(=O)(=O)c2c(C(N)=O)[nH]c3ccc(Br)cc23)C1`, the CC50 at 120 h in series [1] was found to be 155 µM. For the same molecule, in series [2], the pEC50 is less than 3.81. For the same molecule, the result in series [3] was inactive.

As to `C=CS(=O)(=O)N[C@@H]1CCN(S(=O)(=O)c2c(C(N)=O)[nH]c3ccc(Br)cc23)C1`, in series [1], the CC50 at 120 h was found to be 2.1 µM. Also, the pEC50 in series [2] was less than 5.68. Further, the result in series [3] was inactive.

These data come from ChEMBL document CHEMBL4680321, “Novel indolylarylsulfone derivatives as covalent HIV-1 reverse transcriptase inhibitors specifically targeting the drug-resistant mutant Y181C” (Bioorg Med Chem, 2021).
